{"source": "patent US9035133B2", "about": "“Herbicide-resistant sunflower plants and methods of use” (priority 2006, dated 2015)", "type_in_all_cases": "in vivo, Helianthus annuus", "key": {"[1]": {"test_system": "sunflower Entry 1, IMI Restorer, A205V homo", "experiment": "Field trial, phytotoxicity rating (% crop injury)", "conditions": "21 DAT", "procedure": "(§1) A field trial was conducted to compare the herbicide tolerance of sunflower hybrids carrying the MUT31 trait and the A205V mutation in a sunflower AHASL gene (A205V/A205V). A sunflower AHASL gene with the A205V mutation encodes a AHASL protein which has a valine at amino acid that corresponds to amino acid position 205 in the Arabidopsis thaliana AHASL protein. The amino acid at the same position in a wild-type sunflower AHASL protein is alanine. In the amino acid sequence of the sunflower AHASL protein, this alanine-to-valine amino acid substitution is at amino acid position 190. By convention, the sites of amino acid substitutions that are known to give rise to herbicide resistance in plant AHASL proteins are typically referred to by the position of the substitution in the amino acid sequence of the Arabidopsis AHASL protein.\n(§2) Seed from each entry was produced under optimum seed production conditions in South America in 2005/2006. The field trial was conducted at one location in North Dakota, USA in 2006. The entries were organized in a randomized complete block using a split plot design consisting of 3 replications for each treatment combination. Factor A was the herbicide treatment, and factor B was the sunflower entry. The plot size was 4 rows×12 ft and the seeding rate was consistent with local agronomic practices. The spray volume was 10 gallons per acre (GPA) (or 100 liters/ha) for a backpack sprayer or 20 GPA (or 200 liters/ha) for a tractor mounted boom. The herbicide treatments were applied at the 2-4 leaf growth stage.\n(§3) Phytotoxicity ratings were assessed at 7 days and 21 days following herbicide application. Phytotoxicity was recorded as the amount of plant damage (in percent), where a rating of ‘0’ indicated no damage to the plants in the plot relative to the untreated plot. A rating of ‘100’ indicated complete necrosis (death) of the plants in the plot relative to the untreated plot.\n(§4) The data was subjected to an ANOVA analysis and the means from the 3 repetitions are presented in Table 8 (phytotoxicity at 21 days post-treatment)."}, "[2]": {"test_system": "sunflower Entry 2, IMI cms × IMI restorer, A205V homo", "experiment": "Field trial, phytotoxicity rating (% crop injury)", "conditions": "21 DAT", "procedure": "as §1, §2, §3, §4"}, "[3]": {"test_system": "sunflower Entry 8, MUT31 Restorer, MUT31 homo", "experiment": "Field trial, phytotoxicity rating (% crop injury)", "conditions": "21 DAT", "procedure": "as §1, §2, §3, §4"}, "MUT31": {"test_system": "MUT31", "experiment": "Previous studies (data not shown), crop injury"}, "MUT31 sunflower plants": {"test_system": "MUT31 sunflower plants", "experiment": "Greenhouse factorial experiment, herbicide damage score (imazamox with or without malathion)", "conditions": "7 days after spraying", "procedure": "(§5) FIG. 1 is a graphical representation of the results of a 2×3×2 factorial experiment to the test the effects of sunflower genotype (RHA266 or MUT31), herbicide dose (0, 0.25X, and, 0.50X; where X=50 g a.i./ha imazamox), and malathion (0 or 1000 g a.i./ha). The sunflower plants were at the 3-4 leaf growth stage at time of malathion and herbicide spraying. Malathion was sprayed on the plants 30 minutes prior to the imazamox spraying. The sunflower plants were evaluated at 7 days after herbicide spraying to determine damage scores. Additional details are provided below in Example 3.\n(§6) To evaluate the detoxification ability of MUT31 sunflower plants, an experiment was conducted in the greenhouse. The objective of the experiment was to determine if the imazamox tolerance of MUT31 plants is associated with detoxification mechanism that is mediated by a P450 monooxygenase enzyme (referred to herein as “P450 enzyme”). […] Thus, plants comprising enhanced herbicide tolerance that is due to an altered P450 enzyme are expected to become less tolerant or susceptible to the herbicide when malthion is applied to the plants before they are treated with the herbicide.\n(§7) A factorial experiment with three factors: genotypes (MUT31 and RHA266), herbicide dose (Control, 0.25X , and 0.50X; where X=50 g ai/ha imazamox) and malathion (with or without malathion) was arranged in a randomized split-split plot block design. Imazamox (SWEEPER) was sprayed at the 3-4 leaf growth stage. The P450 inhibitor malathion was sprayed at a rate of 1000 g ai/ha 30 minutes prior to herbicide spraying."}, "RHA266 sunflower plants": {"test_system": "RHA266 sunflower plants", "experiment": "Greenhouse factorial experiment, herbicide damage score (imazamox with or without malathion)", "conditions": "7 days after spraying", "procedure": "as §5, §6, §7"}, "[4]": {"test_system": "sunflower Entry 3, WT × IMI restorer, A205V hetero", "experiment": "Field trial, phytotoxicity rating (% crop injury)", "conditions": "50 g ai/ha imazamox + 0.25% (v/v) NIS, 21 DAT", "procedure": "as §1, §2, §3, §4"}, "[5]": {"test_system": "sunflower Entry 5, A837 cms × IMI restorer, A205V hetero", "experiment": "Field trial, phytotoxicity rating (% crop injury)", "conditions": "50 g ai/ha imazamox + 0.25% (v/v) NIS, 21 DAT", "procedure": "as §1, §2, §3, §4"}, "[6]": {"test_system": "sunflower Entry 6, IMI cms × MUT31 restorer, A205V/MUT31 hetero", "experiment": "Field trial, phytotoxicity rating (% crop injury)", "conditions": "21 DAT", "procedure": "as §1, §2, §3, §4"}, "[7]": {"conditions": "160 g ai/ha imazapyr + 0.25% (v/v) NIS"}, "[8]": {"conditions": "herbicide dose 0× (control), malathion 1000 g ai/ha alone"}, "[9]": {"conditions": "herbicide dose 0× (control), malathion 1000 g ai/ha alone, listed as Malathion"}, "[10]": {"conditions": "0.25× imazamox (X=50 g ai/ha), malathion 1000 g ai/ha 30 minutes prior"}, "[11]": {"conditions": "0.25× imazamox (X=50 g ai/ha), no malathion"}, "[12]": {"conditions": "0.50× imazamox (X=50 g ai/ha), malathion 1000 g ai/ha 30 minutes prior"}, "[13]": {"conditions": "0.50× imazamox (X=50 g ai/ha), no malathion"}, "[14]": {"conditions": "100 g ai/ha imazamox + 0.25% (v/v) NIS"}}}
{"smiles": "CC(C)C1(C)N=C(c2ncccc2C(=O)O)NC1=O", "note": "(stereo not drawn) [imazapyr]", "values": [{"measurement": "Phytotoxicity Rating (% Crop Injury)", "setting": "[1]; [7]", "result": 6.67, "unit": "%"}, {"measurement": "Phytotoxicity Rating (% Crop Injury)", "setting": "[2]; [7]", "result": 3.33, "unit": "%"}, {"measurement": "Phytotoxicity Rating (% Crop Injury)", "setting": "[3]; 80 g ai/ha imazapyr + 0.25% (v/v) NIS", "result": 88.33, "unit": "%"}, {"measurement": "crop injury", "setting": "MUT31; 100 g ai of imazapyr per hectare", "result": 100, "unit": "%"}]}
{"smiles": "CCOC(=O)CC(SP(=S)(OC)OC)C(=O)OCC", "note": "(stereo not drawn) [malathion, diethyl-dimethoxythiophosphorylthio-succinate]", "values": [{"measurement": "Mean Herbicide Damage Score", "setting": "MUT31 sunflower plants; [8]", "result": "no effect"}, {"measurement": "Mean Herbicide Damage Score", "setting": "MUT31 sunflower plants; [9]", "result": 0.00, "unit": "%"}, {"measurement": "Mean Herbicide Damage Score", "setting": "RHA266 sunflower plants; [8]", "result": "no effect"}, {"measurement": "Mean Herbicide Damage Score", "setting": "RHA266 sunflower plants; [9]", "result": 0.00, "unit": "%"}]}
{"smiles": "COCc1cnc(C2=NC(C)(C(C)C)C(=O)N2)c(C(=O)O)c1", "note": "(stereo not drawn) [imazamox]", "values": [{"measurement": "Mean Herbicide Damage Score", "setting": "MUT31 sunflower plants; [10]", "result": 30.35, "unit": "%"}, {"measurement": "Mean Herbicide Damage Score", "setting": "MUT31 sunflower plants; [11]", "result": 9.50, "unit": "%"}, {"measurement": "Mean Herbicide Damage Score", "setting": "MUT31 sunflower plants; [12]", "result": 40.31, "unit": "%"}, {"measurement": "Mean Herbicide Damage Score", "setting": "MUT31 sunflower plants; [13]", "result": 20.13, "unit": "%"}, {"measurement": "Mean Herbicide Damage Score", "setting": "RHA266 sunflower plants; [10]", "result": 45.30, "unit": "%"}, {"measurement": "Mean Herbicide Damage Score", "setting": "RHA266 sunflower plants; [11]", "result": 27.95, "unit": "%"}, {"measurement": "Mean Herbicide Damage Score", "setting": "RHA266 sunflower plants; [12]", "result": 45.50, "unit": "%"}, {"measurement": "Mean Herbicide Damage Score", "setting": "RHA266 sunflower plants; [13]", "result": 42.35, "unit": "%"}, {"measurement": "Phytotoxicity Rating (% Crop Injury)", "setting": "[1]; [14]", "result": 6.67, "unit": "%"}, {"measurement": "Phytotoxicity Rating (% Crop Injury)", "setting": "[2]; [14]", "result": 3.33, "unit": "%"}, {"measurement": "Phytotoxicity Rating (% Crop Injury)", "setting": "[4]", "result": 6.67, "unit": "%"}, {"measurement": "Phytotoxicity Rating (% Crop Injury)", "setting": "[5]", "result": 3.33, "unit": "%"}, {"measurement": "Phytotoxicity Rating (% Crop Injury)", "setting": "[6]; 50 g ai/ha imazamox + 0.25% (v/v) NIS", "result": 1.67, "unit": "%"}, {"measurement": "Phytotoxicity Rating (% Crop Injury)", "setting": "[6]; 200 g ai/ha imazamox + 0.25% (v/v) NIS", "result": 43, "unit": "%"}, {"measurement": "Phytotoxicity Rating (% Crop Injury)", "setting": "[3]; 37.5 g ai/ha imazamox + 0.25% (v/v) NIS", "result": 47, "unit": "%"}, {"measurement": "crop injury", "setting": "MUT31; 75 g ai of imazamox per hectare", "result": 100, "unit": "%"}]}
